Our source for the IC50, EC50 and Ki values is ChEMBL document CHEMBL5321229, “Conformationally locked sugar derivatives and analogues as potential neuraminidase inhibitors” (Eur J Med Chem, 2023).

As a reminder, the IC50 is the concentration at which inhibition is half-maximal. A word on the Ki: it is a dissociation constant, usually derived from enzyme kinetics or from competition with a known ligand.

The target in one experiment is Neuraminidase (Influenza A virus, UniProt B4URF0). Nature of the experiment: Inhibition of influenza A virus neuraminidase.
Neuraminidase, sequence (B4URF0 whole entry): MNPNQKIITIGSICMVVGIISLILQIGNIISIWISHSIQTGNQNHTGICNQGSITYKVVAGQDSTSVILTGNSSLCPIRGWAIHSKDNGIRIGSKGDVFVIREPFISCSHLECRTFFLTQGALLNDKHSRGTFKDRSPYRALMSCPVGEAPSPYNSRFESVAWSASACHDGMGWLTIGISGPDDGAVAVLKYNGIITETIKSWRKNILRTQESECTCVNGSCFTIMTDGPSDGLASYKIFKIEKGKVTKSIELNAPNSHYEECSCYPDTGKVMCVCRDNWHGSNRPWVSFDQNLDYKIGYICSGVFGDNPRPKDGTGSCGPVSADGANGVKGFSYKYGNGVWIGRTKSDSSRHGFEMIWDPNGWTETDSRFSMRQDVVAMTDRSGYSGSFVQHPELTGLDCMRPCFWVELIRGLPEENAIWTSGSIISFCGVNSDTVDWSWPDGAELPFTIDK
The test system of experiment [1] is Influenza A virus. In words: Antiviral activity against oseltamivir sensitive wild type Influenza A virus A/Brisbane/59/2007 infected infected in dog MDCK cells assessed as inhibition of viral growth incubated for 4 days by neutral red dye-based assay. Format: functional. The settings on record: A/Brisbane/59/2007, MDCK, 96 h, time 4 day, read-out: ED50 (the source's name).

Experiment [2] in a line: Inhibition of influenza B virus B/Victoria/70 neuraminidase using 2'-(4-methylumbelliferyl)-alpha-D-acetylneuraminic acid as substrate incubated for 10 to 30 mins by fluorescence-based assay.
Experiment [3] can be described thus: Inhibition of influenza A virus A/Singapore/157 neuraminidase using 2'-(4-methylumbelliferyl)-alpha-D-acetylneuraminic acid as substrate incubated for 10 to 30 mins by fluorescence-based assay.
Experiment [4] is described as follows: Inhibition of Newcastle disease virus neuraminidase using 4-MUNeu5Ac as substrate assessed as reduction in neuraminidase activity incubated for 15 mins by spectrofluorometric analysis.
A short description of experiment [5]: Inhibition of influenza A virus A/Anhui/1/2005 H5N1 using MUNANA as substrate preincubated for 45 mins followed by substrate addition by fluorescence based assay.
Experiment [6] addresses Neuraminidase (Influenza A virus (A/Puerto Rico/8/1934(H1N1)), UniProt P03468). In words: Binding affinity to influenza A virus H1N1 (A/Norway/1758/07) neuraminidase using MUNANA as substrate assessed as inhibition constant.
A short description of experiment [7]: Inhibition of hPIV-3 Haemagglutinin-neuraminidase infected in human red blood cells incubated for 90 mins by haemagglutination assay. Type of experiment: cell-based, RBC. To be noted: Human respirovirus 3, Erythrocyte, 1.5 h.
A short description of experiment [8]: Inhibition of influenza A virus H5N1 (A/Anhui/2005) neuraminidase using fluorogenic MUNANA as substrate.
Experiment [9] relates to Influenza A virus. Nature of the experiment: Antiviral activity against Influenza A virus. Format: functional, organism-based.
The test system of a further experiment is Influenza B virus. In words: Antiviral activity against Influenza B virus. Format: functional, organism-based.
For experiment [10], the target named is Neuraminidase (Influenza A virus (A/Memphis/1/1971(H3N2)), UniProt P03471). Nature of the experiment: Inhibition of influenza A virus H3N2 (A/Moscow/10/99) neuraminidase using MUNANA as substrate preincubated for 30 mins followed by substrate addition by fluorescence-based assay.
Neuraminidase (Influenza A virus (A/Memphis/1/1971(H3N2)), UniProt P03471), sequence (P03471 whole entry): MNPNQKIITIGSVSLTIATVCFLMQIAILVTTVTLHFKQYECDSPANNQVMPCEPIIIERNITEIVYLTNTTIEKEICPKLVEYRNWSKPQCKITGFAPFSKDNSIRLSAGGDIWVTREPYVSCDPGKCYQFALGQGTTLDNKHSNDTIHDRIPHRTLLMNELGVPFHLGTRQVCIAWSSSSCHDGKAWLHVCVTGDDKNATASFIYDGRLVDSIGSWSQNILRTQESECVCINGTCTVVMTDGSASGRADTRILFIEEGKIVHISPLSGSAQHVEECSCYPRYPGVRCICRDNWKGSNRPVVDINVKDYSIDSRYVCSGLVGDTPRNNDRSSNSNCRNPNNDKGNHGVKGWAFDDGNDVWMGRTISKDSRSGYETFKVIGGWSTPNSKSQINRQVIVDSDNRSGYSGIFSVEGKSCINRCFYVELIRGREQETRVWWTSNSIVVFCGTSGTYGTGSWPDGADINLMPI
A short description of experiment [11]: Inhibition of influenza A virus H12N5 A/Duck/Alberta/60/1976 neuraminidase using MUNANA as substrate incubated for 30 mins followed by substrate addition by fluorescence based assay.
A short description of experiment [12]: Binding affinity to influenza A virus A/HongKong/156/97 (H5N1) neuraminidase using fluorogenic MUN as substrate assessed as inhibition constant.
Experiment [13] in a line: Inhibition of Influenza A virus H7N9 VLP neuraminidase using MUNANA as substrate.
The test system of experiment [14] is Influenza A virus. In words: Antiviral activity against influenza A virus A/Hong Kong/1/68 (HK1, H3N2) infected in dog MDCK cells assessed as cytopathic effect. Type of experiment: functional, organism-based. (In general: Damage to the host cells serves as the signal in cytopathic effect assays.)

Neuraminidase (Influenza A virus (A/Puerto Rico/8/1934(H1N1)), UniProt P03468), sequence (P03468 whole entry): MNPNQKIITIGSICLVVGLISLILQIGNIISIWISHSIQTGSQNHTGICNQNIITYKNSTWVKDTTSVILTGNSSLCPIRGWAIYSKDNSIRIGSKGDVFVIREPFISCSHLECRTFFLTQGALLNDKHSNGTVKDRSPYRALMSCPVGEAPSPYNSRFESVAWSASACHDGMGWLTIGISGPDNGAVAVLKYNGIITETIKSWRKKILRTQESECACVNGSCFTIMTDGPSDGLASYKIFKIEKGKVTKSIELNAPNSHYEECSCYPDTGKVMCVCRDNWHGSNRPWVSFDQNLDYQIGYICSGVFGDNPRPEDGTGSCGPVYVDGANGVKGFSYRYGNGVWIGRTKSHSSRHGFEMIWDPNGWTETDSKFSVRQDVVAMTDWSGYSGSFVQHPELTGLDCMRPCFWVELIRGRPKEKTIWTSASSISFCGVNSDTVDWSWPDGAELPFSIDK

`CCO[C@@H]([C@@H]1OC(C(=O)O)=C[C@H](N=C(N)N)[C@H]1NC(C)=O)[C@H](O)CO` yielded an IC50 against Neuraminidase of 0.0733 µM.
The same measure, in the same setting: the figure for `CCCCCCCCO[C@@H]([C@@H]1OC(C(=O)O)=C[C@H](N=C(N)N)[C@H]1NC(C)=O)[C@H](O)CO` is 0.0455 µM; for `CCCCCO[C@@H]([C@@H]1OC(C(=O)O)=C[C@H](N=C(N)N)[C@H]1NC(C)=O)[C@H](O)CO` it is 0.0356 µM; for `CCCCCCCCCCCCO[C@@H]([C@@H]1OC(C(=O)O)=C[C@H](N=C(N)N)[C@H]1NC(C)=O)[C@H](O)CO` it is 0.0992 µM.
The same measure, in the same setting: the figure for `CCCO[C@@H]([C@@H]1OC(C(=O)O)=C[C@H](N=C(N)N)[C@H]1NC(C)=O)[C@H](O)CO` is 0.0818 µM.
In the case of `CCC(CC)O[C@@H]1CC(C(=O)O)=C[C@H](N)[C@H]1NC(C)=O`, in the experiment on Influenza A virus [1], the EC50 turned out to be 12 µM.
Still for that read-out and setting: the figure for `CCC(CC)O[C@@H]1CC(C(=O)O)=C[C@H](NC(=N)N)[C@H]1NC(C)=O` is 3.9 µM.
For the molecule `CCC(CC)[C@H](NC(C)=O)[C@@H]1C[C@@H](C(=O)O)C[C@H]1N=C(N)N`, the IC50 in experiment [2] and in experiment [3] was below 0.01 µM throughout.
At Neuraminidase, `CO[C@@H]([C@@H]1OC(C(=O)O)=C[C@H](NC(=N)N)[C@H]1NC(C)=O)[C@H](O)CO` came in with an IC50 of 0.0176 µM.
In the case of `O=C(O)C1=C[C@H](NC(=O)C(F)(F)F)[C@H](NC(=O)C(F)(F)F)[C@H]([C@@H](O)[C@H](O)CO)O1`, the IC50 in experiment [4] stood at 0.03 µM.
For the molecule `CCC(CC)O[C@@H]1C2C([C@@H]2C(=O)O)[C@@H](NCc2ccccc2)[C@H]1NC(C)=O` (stereo partly specified), in [5], it took 10 µM to reach half-maximal inhibition (IC50).
For the molecule `CCC(CC)O[C@@H]1C=C(P(=O)(O)O[C@H]2[C@@H](O)[C@@H](CO)O[C@@H](OC)[C@@H]2O)C[C@H](N)[C@H]1NC(C)=O`, the Ki in experiment [6] is 0.00029 µM.
Molecule `CC(C)C(=O)N[C@H]1[C@H]([C@H](O)[C@H](O)CO)OC(C(=O)O)=C(n2cc(-c3ccccc3C(=O)O)nn2)[C@@H]1O` showed an IC50 in experiment [7] of 3.9 µM.
Turning to `CCC(CC)O[C@@H]1C=C(C(=O)O)C[C@H](NS(C)(=O)=O)[C@H]1NC(C)=O`, half-maximal inhibition in experiment [8] (IC50) was put at 3.5 µM.
Regarding `CNC(=N)N[C@H]1C=C(C(=O)O)O[C@@H]([C@H](O)[C@H](O)CO)[C@@H]1NC(C)=O`, the IC50 with Influenza A virus [9] and in the experiment with Influenza B virus was 4.59 µM each time.
Take `CCC(CC)O[C@@H]1C=C(C(=O)O)C[C@H](n2nncc2-c2cccc(N)c2)[C@H]1NC(C)=O`: the IC50 came to 0.019 µM in experiment [10] and 0.045 µM in experiment [11].
Turning to `CC(=O)N[C@H]1[C@H]([C@H](O)[C@H](O)CO)OC(C(=O)O)=C(C/C=C/c2cccc3ccccc23)[C@@H]1O`, in experiment [12], the Ki is 9.3 µM.
In turn, `N=C(N)N[C@@H]1[C@@H](NC(=O)C(F)(F)F)[C@H]([C@H](OC(=O)NCCn2cc(COC[C@H]3O[C@@H](O[C@H]4[C@H](OCc5cn(CCNC(=O)O[C@@H]([C@@H]6O[C@@](F)(C(=O)O)[C@H](F)[C@H](NC(=N)N)[C@H]6NC(=O)C(F)(F)F)[C@H](O)CO)nn5)[C@@H](OCc5cnnn5CCNC(=O)O[C@@H]([C@@H]5O[C@@](F)(C(=O)O)[C@H](F)[C@H](NC(=N)N)[C@H]5NC(=O)C(F)(F)F)[C@H](O)CO)[C@H](OCc5cn(CCNC(=O)O[C@@H]([C@@H]6O[C@@](F)(C(=O)O)[C@H](F)[C@H](NC(=N)N)[C@H]6NC(=O)C(F)(F)F)[C@H](O)CO)nn5)O[C@@H]4COCc4cn(CCNC(=O)O[C@@H]([C@@H]5O[C@@](F)(C(=O)O)[C@H](F)[C@H](NC(=N)N)[C@H]5NC(=O)C(F)(F)F)[C@H](O)CO)nn4)[C@H](OCc4cn(CCNC(=O)O[C@@H]([C@@H]5O[C@@](F)(C(=O)O)[C@H](F)[C@H](NC(=N)N)[C@H]5NC(=O)C(F)(F)F)[C@H](O)CO)nn4)[C@@H](OCc4cn(CCNC(=O)O[C@@H]([C@@H]5O[C@@](F)(C(=O)O)[C@H](F)[C@H](NC(=N)N)[C@H]5NC(=O)C(F)(F)F)[C@H](O)CO)nn4)[C@H]3OCc3cn(CCNC(=O)O[C@@H]([C@@H]4O[C@@](F)(C(=O)O)[C@H](F)[C@H](NC(=N)N)[C@H]4NC(=O)C(F)(F)F)[C@H](O)CO)nn3)nn2)[C@H](O)CO)O[C@@](F)(C(=O)O)[C@@H]1F` returned a concentration for half-maximal inhibition (IC50) in experiment [13] of 0.0306 µM.
Consider `CCC(CC)O[C@@H]1C2C([C@@H]2C(=O)O)[C@@H](NCc2ccc(-c3ccccc3)cc2)[C@H]1NC(C)=O` (stereo partly specified), for which half-maximal inhibition in experiment [5] (IC50) was put at 10 µM.
In the case of `CCOC(=O)NC(=N)N[C@H]1C=C(C(=O)O)O[C@@H]([C@H](O)[C@H](O)CO)[C@@H]1NC(C)=O`, the IC50 in the experiment with Influenza A virus [9] and in the experiment on Influenza B virus was 4.59 µM throughout.
As to `CC(=O)N[C@H]1[C@H]([C@H](O)[C@H](O)CO)OC(C(=O)O)=C[C@@H]1NC(=N)NN`, the IC50 in the experiment with Influenza A virus [9] and in the experiment on Influenza B virus was 4.59 µM each time.
With `CC(=O)N[C@H]1[C@H]([C@H](O)[C@H](O)CO)OC(C(=O)O)=C[C@@H]1NC(=N)N[N+](=O)[O-]`, the IC50 in the experiment on Influenza A virus [9] and in the experiment with Influenza B virus was 4.59 µM each time.
As for `Cc1ccc(C(=O)N[C@H]2C=C(C(=O)O)O[C@@H]([C@@H](O)[C@H](O)CO)[C@H]2NC(=O)C(F)(F)F)cc1`, the IC50 in [4] stood at 0.03 µM.
For `CCC(CC)O[C@@H]1C=C(P(=O)(O)OC[C@H]2O[C@@H](OC)[C@H](O)[C@@H](O)[C@H]2O)C[C@H](N)[C@H]1NC(C)=O`, in experiment [6], the Ki turned out to be 0.00074 µM.
As to `[N-]=[N+]=N[C@H]1C=C(C(=O)O)O[C@@H]([C@@H](O)[C@H](O)CO)[C@H]1NC(=O)C(F)(F)C(F)(F)C(F)(F)F`, in experiment [4], the IC50 amounted to 0.03 µM.
On the same count and under the same terms, the figure for `[N-]=[N+]=N[C@H]1C=C(C(=O)O)O[C@@H]([C@@H](O)[C@H](O)CO)[C@H]1NC(=O)C(F)(F)F` is 0.03 µM.
Consider `CCC(CC)O[C@@H]1C=C(C(=O)O)[C@@H](n2cc(C(O)CC)nn2)[C@H](N)[C@H]1NC(C)=O` (stereo partly specified), for which, in the experiment with Influenza A virus [14], the half-maximal inhibitory concentration (IC50) is 0.1 µM.
Regarding `CC(=O)N[C@H]1[C@H]([C@H](O)[C@H](O)CO)OC(C(=O)O)=C[C@@H]1NC(=N)NO`, the IC50 in the experiment with Influenza A virus [9] and in the experiment on Influenza B virus was 4.59 µM each time.
For `CCC(CC)O[C@@H]1C2C([C@@H]2C(=O)O)[C@@H](O)[C@H]1NC(C)=O` (stereo partly specified), it took 10 µM to reach half-maximal inhibition in experiment [5] (IC50).
